Reference: PMC10303271, “Synthesis and Receptor Binding Studies of α5 GABAAR Selective Novel Imidazodiazepines Targeted for Psychiatric and Cognitive Disorders” (Molecules, 2023)

Assays:
D3 = molecular target: T1, D3 (Homo sapiens, UniProt P35462); assay: PDSP primary binding D3; details: 1.5 h; primary binding, 10,000 nM; last figure of the line = mean of the 4 before it; read-out: D3, PDSP raw data, mean
T1 construct: purchased NIMH Psychoactive Drug Screening Program (PDSP)
Method: (§1) To determine if any off-target receptor-binding effects are present, all the novel ligands were sent to the National Institute of Mental Health (NIMH), Psychoactive Drug Screening Program (PDSP). The ligands were screened over a panel of 47 receptors, ion channels, and transporters to determine any other possible interactions with […]. The hERG-binding was also determined. […] No binding of the test compounds to calcium channels was observed. […] It is necessary to screen the compounds for hERG-binding during the early process of drug discovery. The unintentional binding of many drugs to hERG can cause blockade of hERG K+ channels in the heart, which can cause many side effects including cardiac arrhythmias and sudden death. […] All of the α5 imidazodiazepines were tested for hERG-binding.
(§2) The NIMH PDSP assay protocol book [https://kidbdev.med.unc.edu/databases/PDSP%20Protocols%20II%202013-03-28.pdf accessed on 23 April 2023]. describes the protocols for primary and secondary radio-ligand binding assays. These assays were carried out in a final volume of 125 µL per well in the appropriate binding buffer.
(§3) The binding of a ligand to a receptor, ion channel, or transporter was determined in the […] of 10 µM of the appropriate reference compound. […] Plates were incubated in the dark for 90 min at rt, and the reactions were stopped by vacuum filtration onto 0.3% polyethyleneimine (PEI) soaked 96-well filter mats using a 96-well Filtermateharvester. This was followed by three washes with cold PBS buffer. Radioactivity was then counted on a Microbeta counter. Nonlinear regression was used to analyze the data with N = 6 replicates.

DAT = molecular target: T2, DAT (Homo sapiens, UniProt Q01959); assay: PDSP primary binding DAT; details: 1.5 h, primary binding, 10,000 nM; last figure of the line = mean of the 4 before it; some tables list DAT twice; read-out: DAT, PDSP raw data, mean
T2 construct: purchased NIMH Psychoactive Drug Screening Program (PDSP)
Method: as §1, §2, §3

D2 = molecular target: T3, D2 (Homo sapiens, UniProt P14416); assay: PDSP primary binding D2; details: 1.5 h; primary binding, 10,000 nM; last figure of the line = mean of the 4 before it; read-out: D2, PDSP raw data, mean
T3 construct: purchased NIMH Psychoactive Drug Screening Program (PDSP)
Method: as §1, §2, §3

OT = molecular target: T4, OT (Homo sapiens, UniProt P30559); assay: PDSP primary binding OT (Oxytocin); details: primary binding, 10,000 nM; last figure of the line = mean of the 4 before it; some tables list it twice; read-out: OT (also Oxytocin), PDSP raw data, mean
T4 construct: purchased NIMH Psychoactive Drug Screening Program (PDSP)
T4 sequence (P30559 1-389): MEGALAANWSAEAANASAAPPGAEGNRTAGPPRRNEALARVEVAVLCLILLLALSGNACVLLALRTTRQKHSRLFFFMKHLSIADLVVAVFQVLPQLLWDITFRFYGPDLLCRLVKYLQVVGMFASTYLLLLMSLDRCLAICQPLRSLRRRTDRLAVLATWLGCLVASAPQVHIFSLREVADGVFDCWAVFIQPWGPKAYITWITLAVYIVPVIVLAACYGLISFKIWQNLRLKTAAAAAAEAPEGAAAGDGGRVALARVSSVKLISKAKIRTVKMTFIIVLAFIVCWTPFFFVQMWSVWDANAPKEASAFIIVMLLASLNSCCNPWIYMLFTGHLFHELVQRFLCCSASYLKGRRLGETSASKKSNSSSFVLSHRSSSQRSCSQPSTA
Method: as §1, §2, §3

SERT = molecular target: T5, SERT (Homo sapiens, UniProt P31645); assay: PDSP primary binding SERT; details: primary binding, 10,000 nM; last figure of the line = mean of the 4 before it; some tables list SERT twice; read-out: SERT, PDSP raw data, mean
T5 construct: purchased NIMH Psychoactive Drug Screening Program (PDSP)
Method: as §1, §2, §3

M3D = molecular target: T6, M3D (Homo sapiens, UniProt P20309, A239G/Y149C); assay: PDSP primary binding M3D; details: primary binding, 10,000 nM; last figure of the line = mean of the 4 before it; read-out: M3D, PDSP raw data, mean
T6 construct: purchased NIMH Psychoactive Drug Screening Program (PDSP)
Method: as §1, §2, §3

NOP = molecular target: T7, NOP (Homo sapiens, UniProt P41146); assay: PDSP primary binding NOP; details: primary binding, 10,000 nM; last figure of the line = mean of the 4 before it
T7 construct: purchased NIMH Psychoactive Drug Screening Program (PDSP)
Method: as §1, §2, §3

hERG K+ channel = molecular target: T8, hERG K+ channel (Homo sapiens, UniProt Q12809); assay: PDSP radioligand binding at hERG; details: human; at 10,000 nM; N = 5; read-out: Binding Affinity at hERG % Inhibition (Primary Binding)
T8 construct: purchased NIMH Psychoactive Drug Screening Program (PDSP)
Method: as §1, §2, §3

Sigma 1 = assay: PDSP primary binding Sigma 1; details: primary binding, 10,000 nM; last figure of the line = mean of the 4 before it
Method: as §1, §2, §3

Alpha3Beta2 = molecular target: T9, Alpha3Beta2 (Rattus norvegicus, UniProt P04757+P12390); assay: PDSP primary binding Alpha3Beta2; details: primary binding, 10,000 nM; last figure of the line = mean of the 4 before it; read-out: Alpha3Beta2, PDSP raw data, mean
T9 construct: purchased NIMH Psychoactive Drug Screening Program (PDSP)
Method: as §1, §2, §3

GABAA = assay: PDSP primary binding GABAA; details: primary binding, 10,000 nM; last figure of the line = mean of the 4 before it; some tables list it twice
Method: as §1, §2, §3

HCA2 = molecular target: T10, HCA2 (Homo sapiens, UniProt Q8TDS4); assay: PDSP primary binding HCA2; details: primary binding, 10,000 nM; last figure of the line = mean of the 4 before it; read-out: HCA2, PDSP raw data, mean
T10 construct: purchased NIMH Psychoactive Drug Screening Program (PDSP)
Method: as §1, §2, §3

T8 sequence (Q12809 whole entry): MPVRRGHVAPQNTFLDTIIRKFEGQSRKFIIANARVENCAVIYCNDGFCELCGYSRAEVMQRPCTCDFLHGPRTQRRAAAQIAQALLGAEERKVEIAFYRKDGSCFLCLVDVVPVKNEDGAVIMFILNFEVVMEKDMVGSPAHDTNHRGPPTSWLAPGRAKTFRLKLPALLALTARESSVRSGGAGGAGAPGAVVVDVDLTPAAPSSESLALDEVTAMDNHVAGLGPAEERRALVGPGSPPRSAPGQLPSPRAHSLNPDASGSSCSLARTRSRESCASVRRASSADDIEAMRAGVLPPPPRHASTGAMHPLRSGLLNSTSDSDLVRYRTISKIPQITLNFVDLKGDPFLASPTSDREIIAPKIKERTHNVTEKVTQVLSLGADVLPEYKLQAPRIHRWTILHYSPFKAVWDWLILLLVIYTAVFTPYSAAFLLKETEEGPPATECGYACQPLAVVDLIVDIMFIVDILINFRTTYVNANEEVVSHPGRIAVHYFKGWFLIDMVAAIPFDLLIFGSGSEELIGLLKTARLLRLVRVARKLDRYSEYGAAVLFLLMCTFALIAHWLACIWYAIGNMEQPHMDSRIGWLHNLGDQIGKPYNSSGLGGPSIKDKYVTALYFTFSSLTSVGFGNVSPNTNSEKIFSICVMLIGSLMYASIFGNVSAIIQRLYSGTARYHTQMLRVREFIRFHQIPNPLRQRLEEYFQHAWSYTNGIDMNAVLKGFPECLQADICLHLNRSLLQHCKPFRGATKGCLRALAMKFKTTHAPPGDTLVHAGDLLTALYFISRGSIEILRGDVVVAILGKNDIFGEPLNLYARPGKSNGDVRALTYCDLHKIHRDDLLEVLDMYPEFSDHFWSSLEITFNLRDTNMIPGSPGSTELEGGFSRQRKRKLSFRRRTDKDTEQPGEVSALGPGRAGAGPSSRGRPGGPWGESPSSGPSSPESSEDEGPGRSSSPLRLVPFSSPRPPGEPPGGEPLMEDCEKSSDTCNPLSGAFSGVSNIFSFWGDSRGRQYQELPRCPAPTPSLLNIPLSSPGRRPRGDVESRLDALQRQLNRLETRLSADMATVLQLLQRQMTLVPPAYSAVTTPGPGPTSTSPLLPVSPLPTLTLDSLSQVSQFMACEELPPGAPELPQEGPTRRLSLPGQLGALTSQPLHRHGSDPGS
T6 sequence (P20309 whole entry Y149C/A239G): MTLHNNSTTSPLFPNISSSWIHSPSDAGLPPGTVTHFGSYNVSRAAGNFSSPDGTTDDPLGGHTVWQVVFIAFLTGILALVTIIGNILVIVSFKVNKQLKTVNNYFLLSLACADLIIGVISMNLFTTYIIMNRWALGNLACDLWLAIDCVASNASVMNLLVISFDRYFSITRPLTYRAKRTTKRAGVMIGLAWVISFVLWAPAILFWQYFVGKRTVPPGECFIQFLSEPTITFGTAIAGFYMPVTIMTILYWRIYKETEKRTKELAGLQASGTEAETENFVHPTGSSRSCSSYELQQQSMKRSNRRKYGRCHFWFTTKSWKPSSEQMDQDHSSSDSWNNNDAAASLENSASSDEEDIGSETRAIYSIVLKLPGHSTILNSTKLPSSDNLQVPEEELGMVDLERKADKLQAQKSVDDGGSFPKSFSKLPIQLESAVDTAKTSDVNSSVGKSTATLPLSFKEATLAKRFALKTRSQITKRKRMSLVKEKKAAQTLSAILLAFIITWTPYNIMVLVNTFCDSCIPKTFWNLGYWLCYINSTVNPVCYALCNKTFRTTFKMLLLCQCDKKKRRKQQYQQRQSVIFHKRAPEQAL
T10 sequence (Q8TDS4 whole entry): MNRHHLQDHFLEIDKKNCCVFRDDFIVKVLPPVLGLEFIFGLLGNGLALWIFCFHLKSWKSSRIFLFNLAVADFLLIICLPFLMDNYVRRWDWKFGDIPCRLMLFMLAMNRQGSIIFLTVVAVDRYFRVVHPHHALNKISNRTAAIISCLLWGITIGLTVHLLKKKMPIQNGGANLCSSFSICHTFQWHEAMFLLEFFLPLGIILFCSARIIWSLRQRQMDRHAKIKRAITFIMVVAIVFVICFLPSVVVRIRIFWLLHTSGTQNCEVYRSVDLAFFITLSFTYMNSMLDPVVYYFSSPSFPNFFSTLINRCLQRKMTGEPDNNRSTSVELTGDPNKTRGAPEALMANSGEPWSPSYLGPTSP
T2 sequence (Q01959 whole entry): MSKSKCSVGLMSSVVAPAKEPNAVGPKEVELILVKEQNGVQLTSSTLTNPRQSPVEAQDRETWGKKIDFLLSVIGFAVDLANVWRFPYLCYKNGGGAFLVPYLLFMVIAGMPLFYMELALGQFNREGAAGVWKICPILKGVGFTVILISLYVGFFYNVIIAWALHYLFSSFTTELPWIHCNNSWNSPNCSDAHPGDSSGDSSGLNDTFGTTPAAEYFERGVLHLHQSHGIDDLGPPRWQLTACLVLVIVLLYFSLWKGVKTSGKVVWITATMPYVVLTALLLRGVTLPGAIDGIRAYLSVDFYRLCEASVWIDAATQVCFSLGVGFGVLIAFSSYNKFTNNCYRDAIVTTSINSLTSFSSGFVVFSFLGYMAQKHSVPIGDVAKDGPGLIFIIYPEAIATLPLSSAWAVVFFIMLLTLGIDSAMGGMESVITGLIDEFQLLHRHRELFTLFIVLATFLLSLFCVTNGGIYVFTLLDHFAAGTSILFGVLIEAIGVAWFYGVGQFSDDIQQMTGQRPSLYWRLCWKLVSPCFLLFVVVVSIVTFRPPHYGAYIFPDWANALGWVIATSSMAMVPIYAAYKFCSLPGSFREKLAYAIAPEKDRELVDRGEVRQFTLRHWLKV
T9 sequence (P04757 26-499): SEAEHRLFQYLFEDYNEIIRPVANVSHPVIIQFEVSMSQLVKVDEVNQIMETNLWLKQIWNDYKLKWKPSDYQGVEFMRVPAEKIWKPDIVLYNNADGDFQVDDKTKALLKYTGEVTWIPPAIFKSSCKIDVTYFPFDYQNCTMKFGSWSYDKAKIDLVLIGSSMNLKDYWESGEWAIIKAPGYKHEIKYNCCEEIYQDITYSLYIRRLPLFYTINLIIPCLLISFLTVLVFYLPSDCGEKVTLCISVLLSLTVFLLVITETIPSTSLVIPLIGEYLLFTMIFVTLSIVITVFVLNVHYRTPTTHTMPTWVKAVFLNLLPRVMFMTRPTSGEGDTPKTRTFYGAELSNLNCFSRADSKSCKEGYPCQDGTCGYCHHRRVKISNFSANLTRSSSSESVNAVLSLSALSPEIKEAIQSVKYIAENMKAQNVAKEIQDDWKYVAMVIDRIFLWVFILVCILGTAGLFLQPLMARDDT
T9 sequence (P12390 25-500): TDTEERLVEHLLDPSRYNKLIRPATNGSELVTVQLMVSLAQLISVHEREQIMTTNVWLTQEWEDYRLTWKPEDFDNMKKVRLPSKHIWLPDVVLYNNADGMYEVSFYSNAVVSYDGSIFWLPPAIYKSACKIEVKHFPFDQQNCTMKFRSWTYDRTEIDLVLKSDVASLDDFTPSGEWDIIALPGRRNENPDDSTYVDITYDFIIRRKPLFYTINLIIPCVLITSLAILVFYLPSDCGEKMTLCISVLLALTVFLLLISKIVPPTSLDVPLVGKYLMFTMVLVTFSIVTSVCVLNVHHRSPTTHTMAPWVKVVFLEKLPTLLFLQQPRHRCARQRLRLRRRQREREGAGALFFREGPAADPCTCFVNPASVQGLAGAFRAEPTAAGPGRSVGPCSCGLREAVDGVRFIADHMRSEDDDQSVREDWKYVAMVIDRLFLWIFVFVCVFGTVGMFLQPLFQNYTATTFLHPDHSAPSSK
T5 sequence (P31645 whole entry): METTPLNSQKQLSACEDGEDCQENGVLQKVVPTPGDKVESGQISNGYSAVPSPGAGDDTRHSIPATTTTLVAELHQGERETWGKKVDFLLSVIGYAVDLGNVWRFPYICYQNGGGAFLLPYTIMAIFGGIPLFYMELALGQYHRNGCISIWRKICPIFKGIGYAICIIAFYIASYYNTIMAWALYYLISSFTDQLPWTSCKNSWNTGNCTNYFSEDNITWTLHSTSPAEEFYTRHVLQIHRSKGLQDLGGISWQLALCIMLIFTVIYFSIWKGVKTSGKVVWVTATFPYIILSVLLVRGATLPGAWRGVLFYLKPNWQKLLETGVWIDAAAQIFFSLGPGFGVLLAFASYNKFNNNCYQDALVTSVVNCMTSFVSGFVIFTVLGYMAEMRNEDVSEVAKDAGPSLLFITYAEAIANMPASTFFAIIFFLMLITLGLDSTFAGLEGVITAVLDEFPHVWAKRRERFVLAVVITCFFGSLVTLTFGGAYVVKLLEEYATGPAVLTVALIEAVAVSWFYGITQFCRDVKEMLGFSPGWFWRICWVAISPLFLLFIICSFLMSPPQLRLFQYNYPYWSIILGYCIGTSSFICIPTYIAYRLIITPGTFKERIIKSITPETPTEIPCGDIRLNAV
T1 sequence (P35462 whole entry): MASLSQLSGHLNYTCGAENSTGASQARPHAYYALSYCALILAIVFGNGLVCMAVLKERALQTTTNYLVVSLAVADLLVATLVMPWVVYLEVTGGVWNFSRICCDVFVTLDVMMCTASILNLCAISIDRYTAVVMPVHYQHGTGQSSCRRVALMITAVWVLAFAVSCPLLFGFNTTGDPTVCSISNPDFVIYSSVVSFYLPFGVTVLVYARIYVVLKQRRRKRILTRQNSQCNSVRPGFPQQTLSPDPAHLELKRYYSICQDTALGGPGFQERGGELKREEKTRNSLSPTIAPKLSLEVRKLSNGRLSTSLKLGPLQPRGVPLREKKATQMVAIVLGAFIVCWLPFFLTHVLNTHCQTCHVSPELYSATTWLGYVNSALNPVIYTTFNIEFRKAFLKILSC

CCc1noc(-c2ncn3c2[C@@H](C)N=C(c2ccccc2F)c2cc(C4CC4)ccc2-3)n1 [Compound 46, (R)-5-(8-Cyclopropyl-6-(2′-fluorophenyl)-4-methyl-4H-benzo[f]imidazo[1,5-a][1,4]diazepin-3-yl)-3-ethyl-1,2,4-oxadiazole]
inhibition at 10 µM (D3): 27.8% | inhibition at 10 µM (DAT): 22% | inhibition at 10 µM (D2): 4.73% | inhibition at 10 µM (OT): 11.4% | inhibition at 10 µM (SERT): -3.28% | inhibition at 10 µM (M3D): 9.97% | NOP, PDSP raw data, mean (NOP): 7.5% | inhibition at 90 min, 10000 nM (hERG K+ channel): 4.34 ± 3.92% | Sigma 1, PDSP raw data, mean (Sigma 1): 34.74% | inhibition at 10 µM (Alpha3Beta2): 5.55% | GABAA, PDSP raw data, mean (GABAA): 19.52% | inhibition at 10 µM (HCA2): -17.2%

C#Cc1ccc2c(c1)C(c1ccccc1Cl)=N[C@H](C)c1c(C(=O)N(C)CC)ncn1-2 [Compound 29]
inhibition at 10 µM (D3): 13% | inhibition at 10 µM (D2): -1.58% | inhibition at 10 µM (OT): 41.8% | inhibition at 10 µM (SERT): 6.07% | inhibition at 10 µM (M3D): 6.78% | inhibition at 90 min, 10000 nM (hERG K+ channel): -1.55 ± 10.1% | Sigma 1, PDSP raw data, mean (Sigma 1): 35.65% | inhibition at 10 µM (Alpha3Beta2): 3.52% | GABAA, PDSP raw data, mean (GABAA): 25.77% | inhibition at 10 µM (HCA2): -26.3%

C#Cc1ccc2c(c1)C(c1ccccn1)=N[C@@H](C)c1c(C(=O)NC)ncn1-2 [Compound 23, (S)-8-Ethynyl-N,4-dimethyl-6-(pyridin-2′-yl)-4H-benzo[f]imidazo[1,5-a][1,4]diazepine-3-carboxamide]
inhibition at 10 µM (D3): 7.31% | inhibition at 10 µM (D2): -4.79% | inhibition at 10 µM (OT): 47.4% | inhibition at 10 µM (SERT): -7.1% | inhibition at 10 µM (M3D): 9.08% | inhibition at 90 min, 10000 nM (hERG K+ channel): -4.24 ± 3.47% | Sigma 1, PDSP raw data, mean (Sigma 1): 43.18% | inhibition at 10 µM (Alpha3Beta2): 7.13% | GABAA, PDSP raw data, mean (GABAA): 23.24% | inhibition at 10 µM (HCA2): 15.2%

C#Cc1ccc2c(c1)C(c1ccccc1Cl)=N[C@H](C)c1c(C(=O)NC)ncn1-2 [Compound 21, (R)-6-(2′-Chlorophenyl)-8-ethynyl-N,4-dimethyl-4H-benzo[f]imidazo[1,5-a][1,4]diazepine-3-carboxamide]
inhibition at 10 µM (D3): 6.19% | inhibition at 10 µM (D2): -4.19% | inhibition at 10 µM (OT): -0.63% | inhibition at 10 µM (SERT): 9.24% | inhibition at 10 µM (M3D): 0.48% | NOP, PDSP raw data, mean (NOP): -0.1% | inhibition at 90 min, 10000 nM (hERG K+ channel): -5.73 ± 11.1% | Sigma 1, PDSP raw data, mean (Sigma 1): 44.58% | inhibition at 10 µM (Alpha3Beta2): 3.21% | GABAA, PDSP raw data, mean (GABAA): 12.76% | inhibition at 10 µM (HCA2): 35.7%

CCc1noc(-c2ncn3c2[C@@H](C)N=C(c2ccccc2F)c2cc(-c4ccccc4)ccc2-3)n1 [Compound 35, (R)-3-Ethyl-5-(6-(2′-fluorophenyl)-4-methyl-8-phenyl-4H-benzo[f]imidazo[1,5-a][1,4]diazepin-3-yl)-1,2,4-oxadiazole]
inhibition at 10 µM (D3): 16.2% | inhibition at 10 µM (DAT): 49.4% | inhibition at 10 µM (D2): 7.47% | inhibition at 10 µM (OT): 6.27% | inhibition at 10 µM (SERT): 17.2% | inhibition at 10 µM (M3D): 4.49% | inhibition at 90 min, 10000 nM (hERG K+ channel): 37.3 ± 5.97% | Sigma 1, PDSP raw data, mean (Sigma 1): 45.25% | inhibition at 10 µM (Alpha3Beta2): 5.43% | GABAA, PDSP raw data, mean (GABAA): 16.02% | inhibition at 10 µM (HCA2): -18.7%

C#Cc1ccc2c(c1)C(c1ccccc1F)=N[C@H](C)c1c(C(=S)N(C)C)ncn1-2 [Compound 33, (R)-8-Ethynyl-6-(2′-fluorophenyl)-N,N,4-trimethyl-4H-benzo[f]imidazo[1,5-a][1,4]diazepine-3-carbothioamide]
inhibition at 10 µM (D3): -3.57% | inhibition at 10 µM (DAT): 29.7% | inhibition at 10 µM (D2): 0.27% | inhibition at 10 µM (SERT): -9.27% | inhibition at 10 µM (M3D): 4.84% | inhibition at 90 min, 10000 nM (hERG K+ channel): -4.4 ± 4.52% | Sigma 1, PDSP raw data, mean (Sigma 1): 46.91% | inhibition at 10 µM (Alpha3Beta2): 2.14% | GABAA, PDSP raw data, mean (GABAA): -4.01% | inhibition at 10 µM (HCA2): -9.82%

C[C@H]1N=C(c2ccccc2F)c2cc(-c3ccccc3)ccc2-n2cnc(C(=O)N(C)C)c21 [Compound 5, (R)-6-(2′-Fluorophenyl)-N,N,4-trimethyl-8-phenyl-4H-benzo[f]imidazo[1,5-a][1,4]diazepine-3-carboxamide]
inhibition at 10 µM (D3): -3.57% | inhibition at 10 µM (DAT): 29.7% | inhibition at 10 µM (D2): 0.27% | inhibition at 10 µM (SERT): -9.27% | inhibition at 10 µM (M3D): 4.84% | inhibition at 90 min, 10000 nM (hERG K+ channel): -0.48 ± 4.52% | Sigma 1, PDSP raw data, mean (Sigma 1): 46.91% | inhibition at 10 µM (Alpha3Beta2): 2.14% | GABAA, PDSP raw data, mean (GABAA): -4.01% | inhibition at 10 µM (HCA2): -9.82%

CCc1noc(-c2ncn3c2[C@@H](C)N=C(c2ccccc2F)c2cc(Cl)ccc2-3)n1 [Compound 36, (R)-5-(8-Chloro-6-(2′-fluorophenyl)-4-methyl-4H-benzo[f]imidazo[1,5-a][1,4]diazepin-3-yl)-3-ethyl-1,2,4-oxadiazole]
inhibition at 10 µM (D3): 4.97% | inhibition at 10 µM (DAT): 11% | inhibition at 10 µM (D2): 3.17% | inhibition at 10 µM (OT): 14.7% | inhibition at 10 µM (SERT): 3.09% | inhibition at 10 µM (M3D): -2.01% | Sigma 1, PDSP raw data, mean (Sigma 1): 46% | inhibition at 10 µM (Alpha3Beta2): 6.01% | GABAA, PDSP raw data, mean (GABAA): 13.12% | inhibition at 10 µM (HCA2): -29.3%

CCc1noc(-c2ncn3c2CN=C(c2ccccc2F)c2cc(C4CC4)ccc2-3)n1 [Compound 44, 5-(8-Cyclopropyl-6-(2′-fluorophenyl)-4H-benzo[f]imidazo[1,5-a][1,4]diazepin-3-yl)-3-ethyl-1,2,4-oxadiazole]
inhibition at 10 µM (D3): 16.1% | inhibition at 10 µM (DAT): 37.4% | inhibition at 10 µM (D2): 0.67% | inhibition at 10 µM (OT): 15.4% | inhibition at 10 µM (SERT): 7.2% | inhibition at 10 µM (M3D): 11.8% | inhibition at 90 min, 10000 nM (hERG K+ channel): 33.2 ± 12.6% | Sigma 1, PDSP raw data, mean (Sigma 1): 53.37% | inhibition at 10 µM (Alpha3Beta2): -0.02% | GABAA, PDSP raw data, mean (GABAA): 11.92% | inhibition at 10 µM (HCA2): -11.9%
